Source: patent US10143695B2 (priority 2016, dated 2018)

Experiments:
Format in all cases: cell-based
[1] = test system: BT474 cells (HER2 expressing cells); assay: CellTiter-Glo cell viability assay, BT474; conditions: Homo sapiens, BT-474; PBD compounds, 72 h incubation
Description: (§1) PBD compounds and conjugates thereof were evaluated for their antiproliferation properties in tumor cell lines in vitro using CellTiter-Glo® (Promega Corp). Cells were plated in black walled 96-well plate and allowed to adhere overnight at 37° C. in a humidified atmosphere of 5% CO2. BT474, SKBR3, NCI-N87 cells (HER2 expressing cells), JIMT1 cells (HER2 medium expression level cells) and MCF7 cells (HER2 low expressing levels cells) and were plated at a density of 5,000 cells per well. The next day the medium was replaced with 50 μL fresh medium and 50 μL of 2× stocks of PBD compounds or antibody-PBD conjugate were added to appropriate wells, mixed and incubated for 72 h. CellTiter-Glo® reagent was added to the wells at room temperature and the luminescent signal was measured after 10 min using a SpectraMax M5 plate reader (Molecular Devices). Dose response curves were generated using SoftMax Pro software. IC50 values were determined from four-parameter curve fitting.

[2] = test system: SKBR3 cells (HER2 expressing cells); assay: CellTiter-Glo cell viability assay, SKBR3; conditions: Homo sapiens, SK-BR-3; PBD compounds, 72 h incubation
Description: as §1

[3] = test system: NCI-N87 cells (HER2 expressing cells); assay: CellTiter-Glo cell viability assay, NCI-N87; conditions: Homo sapiens, NCI-N87; PBD compounds, 72 h incubation
Description: as §1

[4] = test system: JIMT1 cells (HER2 medium expression level cells); assay: CellTiter-Glo cell viability assay, JIMT1; conditions: Homo sapiens, JIMT-1; PBD compounds, 72 h incubation
Description: as §1

[5] = test system: MCF7 cells (HER2 low expressing levels cells); assay: CellTiter-Glo cell viability assay, MCF7; conditions: Homo sapiens, MCF7; PBD compounds, 72 h incubation
Description: as §1

Compound	IC50 [1] [nM]	IC50 [2] [nM]	IC50 [3] [nM]	IC50 [4] [nM]	IC50 [5] [nM]
C=C1C[C@H]2C=Nc3cc(OCCCC(=O)Nc4cn(C)c(C(=O)Nc5cc(C(=O)Nc6cc(C(=O)n7ccc8cc(N)ccc87)n(C)c6)n(C)c5)n4)c(OC)cc3C(=O)N2C1 [Compound 8, (S,Z)-N-(5-((5-(5-amino-1H-indole-1-carbonyl)-1-methyl-1H-pyrrol-3-yl)carbamoyl)-1-methyl-1H-pyrrol-3-yl)-4-(4-((7-methoxy-2-methylene-5-oxo-2,3,5,11a-tetrahydro-1H-benzo[e]pyrrolo[1,2-a][1,4]diazepin-8-yl)oxy)butanamido)-1-methyl-1H-imidazole-2-carboxamide]	0.84	0.15	0.43	2.2	4
C=C1C[C@H]2C=Nc3cc(OCCCC(=O)Nc4cn(C)c(C(=O)Nc5cc(C(=O)Nc6cc(C(=O)n7ccc8cc(C(=O)OC)ccc87)n(C)c6)n(C)c5)n4)c(OC)cc3C(=O)N2C1 [Compound 8A, (S,Z)-methyl 1-(4-(4-(4-(4-(7-methoxy-2-methylene-5-oxo-2,3,5,11a-tetrahydro-1H-benzo[e]pyrrolo[1,2-a][1,4]diazepin-8-yloxy)butanamido)-1-methyl-1H-imidazole-2-carboxamido)-1-methyl-1H-pyrrole-2-carboxamido)-1-methyl-1H-pyrrole-2-carbonyl)-1H-indole-5-carboxylate]	0.83	0.14	2.9	0.55	3.7
C=C1C[C@H]2C=Nc3cc(OCCCC(=O)Nc4cn(C)c(C(=O)Nc5cc(C(=O)Nc6cc(C(=O)n7ccc8c(N)cccc87)n(C)c6)n(C)c5)n4)c(OC)cc3C(=O)N2C1 [Compound 11A, (S,Z)-N-(5-(5-(4-amino-1H-indole-1-carbonyl)-1-methyl-1H-pyrrol-3-ylcarbamoyl)-1-methyl-1H-pyrrol-3-yl)-4-(4-(7-methoxy-2-methylene-5-oxo-2,3,5,11a-tetrahydro-1H-benzo[e]pyrrolo[1,2-a][1,4]diazepin-8-yloxy)butanamido)-1-methyl-1H-imidazole-2-carboxamide]	4	0.67	1.5	11.3	14.8
C=C1C[C@H]2C=Nc3cc(OCCCC(=O)Nc4cn(C)c(C(=O)Nc5cc(C(=O)n6ccc7cc(N)ccc76)n(C)c5)n4)c(OC)cc3C(=O)N2C1 [Compound 12, (S,Z)-N-(5-(5-amino-1H-indole-1-carbonyl)-1-methyl-1H-pyrrol-3-yl)-4-(4-((7-methoxy-2-methylene-5-oxo-2,3,5,11a-tetrahydro-1H-benzo[e]pyrrolo[1,2-a][1,4]diazepin-8-yl)oxy)butanamido)-1-methyl-1H-imidazole-2-carboxamide]	2	0.4	7	4.4	13.9
C=C1C[C@H]2C=Nc3cc(OCCCC(=O)Nc4cn(C)c(C(=O)Nc5cc(C(=O)Nc6cc(C(=O)n7ccc8ccc(N)cc87)n(C)c6)n(C)c5)n4)c(OC)cc3C(=O)N2C1 [Compound 13A, (S,Z)-N-(5-(5-(6-amino-1H-indole-1-carbonyl)-1-methyl-1H-pyrrol-3-ylcarbamoyl)-1-methyl-1H-pyrrol-3-yl)-4-(4-(7-methoxy-2-methylene-5-oxo-2,3,5,11a-tetrahydro-1H-benzo[e]pyrrolo[1,2-a][1,4]diazepin-8-yloxy)butanamido)-1-methyl-1H-imidazole-2-carboxamide]	2.5	0.28	0.73	3.6	4.4
C=C1C[C@H]2C=Nc3cc(OCCCC(=O)Nc4cn(C)c(C(=O)Nc5cc(C(=O)Nc6cc(C(=O)n7ccc8cc(SC)ccc87)n(C)c6)n(C)c5)n4)c(OC)cc3C(=O)N2C1 [Compound 19, (S,Z)-4-(4-(7-methoxy-2-methylene-5-oxo-2,3,5,11a-tetrahydro-1H-benzo[e]pyrrolo[1,2-a][1,4]diazepin-8-yloxy)butanamido)-1-methyl-N-(1-methyl-5-(1-methyl-5-(5-(methylthio)-1H-indole-1-carbonyl)-1H-pyrrol-3-ylcarbamoyl)-1H-pyrrol-3-yl)-1H-imidazole-2-carboxamide]	0.59	0.2	0.35	1.34	2.1
C=C1C[C@H]2C=Nc3cc(OCCCC(=O)Nc4cn(C)c(C(=O)Nc5cc(C(=O)Nc6cc(C(=O)n7ccc8cc(S(C)(=O)=O)ccc87)n(C)c6)n(C)c5)n4)c(OC)cc3C(=O)N2C1 [Compound 20, (S,Z)-4-(4-(7-methoxy-2-methylene-5-oxo-2,3,5,11a-tetrahydro-1H-benzo[e]pyrrolo[1,2-a][1,4]diazepin-8-yloxy)butanamido)-1-methyl-N-(1-methyl-5-(1-methyl-5-(5-(methylsulfonyl)-1H-indole-1-carbonyl)-1H-pyrrol-3-ylcarbamoyl)-1H-pyrrol-3-yl)-1H-imidazole-2-carboxamide]	126	5.5	26	19.9	202
C=C1C[C@H]2C=Nc3cc(OCCCC(=O)Nc4cn(C)c(C(=O)Nc5cc(C(=O)Nc6cc(C(=O)n7ncc8ccc(N)cc87)n(C)c6)n(C)c5)n4)c(OC)cc3C(=O)N2C1 [Compound 28, (S,Z)-N-(5-(5-(6-amino-1H-indazole-1-carbonyl)-1-methyl-1H-pyrrol-3-ylcarbamoyl)-1-methyl-1H-pyrrol-3-yl)-4-(4-(7-methoxy-2-methylene-5-oxo-2,3,5,11a-tetrahydro-1H-benzo[e]pyrrolo[1,2-a][1,4]diazepin-8-yloxy)butanamido)-1-methyl-1H-imidazole-2-carboxamide]	2.9	0.16	1.02	0.6	2.6
C=C1C[C@H]2C=Nc3cc(OCCCC(=O)Nc4cn(C)c(C(=O)Nc5cc(C(=O)Nc6cc(C(=O)O)n(C)c6)n(C)c5)n4)c(OC)cc3C(=O)N2C1 [Compound 51, (S,Z)-4-(4-(4-(4-(7-methoxy-2-methylene-5-oxo-2,3,5,11a-tetrahydro-1H-benzo[e]pyrrolo[1,2-a][1,4]diazepin-8-yloxy)butanamido)-1-methyl-1H-imidazole-2-carboxamido)-1-methyl-1H-pyrrole-2-carboxamido)-1-methyl-1H-pyrrole-2-carboxylic acid]	300	260	300	300	300
C=C1C[C@@H]2C=Nc3cc(OCCCC(=O)Nc4cc(C(=O)Nc5cc(C(=O)Nc6cc(C(=O)NCCCO)n(C)c6)n(C)c5)n(C)c4)c(OC)cc3C(=O)N2C1 [Compound 55, (R,Z)-N-(3-hydroxypropyl)-4-(4-(4-(4-(7-methoxy-2-methylene-5-oxo-2,3,5,11a-tetrahydro-1H-benzo[e]pyrrolo[1,2-a][1,4]diazepin-8-yloxy)butanamido)-1-methyl-1H-pyrrole-2-carboxamido)-1-methyl-1H-pyrrole-2-carboxamido)-1-methyl-1H-pyrrole-2-carboxamide]	7.5	2.5	5	2	47
COc1cc2c(cc1OCCCC(=O)Nc1cc(C(=O)Nc3cc(C(=O)Nc4cc(C(=O)NCCCO)n(C)c4)n(C)c3)n(C)c1)N=C[C@@H]1CCCN1C2=O [Compound 66, (S,Z)-N-(3-hydroxypropyl)-4-(4-(4-(4-(7-methoxy-5-oxo-2,3,5,11a-tetrahydro-1H-benzo[e]pyrrolo[1,2-a][1,4]diazepin-8-yloxy)butanamido)-1-methyl-1H-pyrrole-2-carboxamido)-1-methyl-1H-pyrrole-2-carboxamido)-1-methyl-1H-pyrrole-2-carboxamide]	86	16	27	15	121
COc1cc2c(cc1OCCCC(=O)Nc1cc(C(=O)Nc3cc(C(=O)Nc4cc(C(=O)NCCCO)n(C)c4)n(C)c3)n(C)c1)N=C[C@@H]1Cc3ccccc3N1C2=O [Compound 69]	4.7	1.5	3	1.5	69
C=C1C[C@H]2C=Nc3cc(OCCCC(=O)Nc4cn(C)c(C(=O)Nc5cc(C(=O)Nc6cc(C(=O)N7CCc8cc(N)ccc87)n(C)c6)n(C)c5)n4)c(OC)cc3C(=O)N2C1 [Compound 77, (S,Z)-N-(5-(5-(5-aminoindoline-1-carbonyl)-1-methyl-1H-pyrrol-3-ylcarbamoyl)-1-methyl-1H-pyrrol-3-yl)-4-(4-(7-methoxy-2-methylene-5-oxo-2,3,5,11a-tetrahydro-1H-benzo[e]pyrrolo[1,2-a][1,4]diazepin-8-yloxy)butanamido)-1-methyl-1H-imidazole-2-carboxamide]	37.1	1.4	6.4	8.6	14.9
